The target of series [1] is T1, human 5-HT3A receptor (wild type) (Homo sapiens, UniProt P46098).
T1 construct: expressed in transfected cells; host or cells: Xenopus oocytes injected with in vitro transcribed mRNA
T1 sequence (P46098 24-478): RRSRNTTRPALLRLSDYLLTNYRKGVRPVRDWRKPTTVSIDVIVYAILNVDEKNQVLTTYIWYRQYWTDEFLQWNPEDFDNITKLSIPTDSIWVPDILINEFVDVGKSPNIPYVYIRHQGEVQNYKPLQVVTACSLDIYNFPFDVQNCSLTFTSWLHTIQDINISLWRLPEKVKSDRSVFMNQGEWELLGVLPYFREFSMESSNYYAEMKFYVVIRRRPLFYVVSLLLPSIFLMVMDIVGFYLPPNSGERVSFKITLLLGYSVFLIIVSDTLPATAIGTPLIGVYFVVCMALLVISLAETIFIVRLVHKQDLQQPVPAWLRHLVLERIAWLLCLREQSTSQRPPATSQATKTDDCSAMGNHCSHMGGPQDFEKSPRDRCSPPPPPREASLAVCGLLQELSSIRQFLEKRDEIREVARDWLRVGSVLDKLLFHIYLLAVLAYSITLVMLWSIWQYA
Briefly: Two-electrode voltage clamp, inhibition of serotonin-induced inward current (I5-HT) in Xenopus oocytes expressing wild-type receptor. In kind it is cell-based.
Method: (§1) Xenopus oocytes were used in this study as cells for expression of human 5-HT3A receptor. All female frogs used in this experiment were obtained from the Korean Xenopus Resource Center for Research (KXRCR000001). […] Xenopus oocytes were extracted during ice incubation state and isolated as single oocytes using collagenase II (2 mg/mL) in OR2 buffer (82.5 mM NaCl, 2 mM KCl, 1 mM MgCl2, 5 mM HEPES, pH 7.4). Isolated oocytes were incubated with ND96 incubation buffer (96 mM NaCl, 2 mM KCl, 1 mM MgCl2, 1.8 mM CaCl2, 5 mM HEPES, 2.5 mM sodium pyruvate, and 50 mg/mL gentamycin, pH 7.4) at 18 °C until the experiment was performed. Human 5-HT3A receptor mRNA was injected into oocytes using a nanoinjector (Drummond Scientific, Broomall, PA, USA) with a mineral-filled 10 μL microdispenser (VWR, Piscataway, NJ, USA).
(§2) To confirm the KAE activity on the human 5-HT3A receptor, a two-electrode voltage clamp (OC-725C; Warner Instruments, Hamden, CT, USA) with a Digitata 1550A was used. For the experiment, induced-inward current was converted to digital data with pClamp 10 software (Axon Instruments, Union City, CA, USA). All experiments were performed at room temperature using an oocyte clamp equipped with Digidata. The membrane holding potential was −80 mV.
All presented experiments were performed at least three times for scientific verification. Data are presented as mean ± S.E.M (standard error of the mean). Induced-inward current data were analyzed with SigmaPlot 10.0 software (Systat Software, Inc., San Jose, CA, USA). To prepare a sigmoid prediction curve for induced peak data, Hill equation reflecting the binding to ligand and macromolecule was obtained with an OriginPro 9.0 software (Origin, MA, USA). The formula used was y = Vmin + (Vmax − Vmin) × [x]^n/([IC50]^n + [x]^n), where Vmin was the minimum current, Vmax was the maximum current, IC50 was the maximum half inhibitory effect percentage of inhibitory activation by KAE, [x] was the concentration of serotonin or KAE, and n was the interaction-coefficient. Statistical significance was considered when p-value was less than or equal to 0.05 (p ≤ 0.05).

For series [2], the target named is T2, human 5-HT3A receptor E209A mutant (Homo sapiens, UniProt P46098, E231A).
T2 construct: expressed in transfected cells; host or cells: Xenopus oocytes injected with mutant mRNA
T2 sequence (P46098 24-478 E231A): T1 sequence (P46098 24-478) with E208A
Briefly: Two-electrode voltage clamp, I5-HT inhibition, E209A mutant. It counts as cell-based. On the procedure:
Human 5-HT3A receptor cDNA was linearized using restriction enzyme XhoI. In vitro transcription was performed using an mMESSAGE mMACHINE T7 Transcription Kit (Thermo Fisher Scientific, Waltham, MA, USA). The final mRNA product was dissolved in 1X Diethyl Pyrocarbonate (RNase-free water) at a final concentration of 1 μg/μL and kept in a deep-freezer at −80 °C until used.
Xenopus oocytes were used in this study as cells for expression of human 5-HT3A receptor. All female frogs used in this experiment were obtained from the Korean Xenopus Resource Center for Research (KXRCR000001). […] Isolated oocytes were incubated with ND96 incubation buffer (96 mM NaCl, 2 mM KCl, 1 mM MgCl2, 1.8 mM CaCl2, 5 mM HEPES, 2.5 mM sodium pyruvate, and […], pH 7.4) at 18 °C until the experiment was performed. Human 5-HT3A receptor mRNA was injected into oocytes using a nanoinjector (Drummond Scientific, Broomall, PA, USA) with a mineral-filled 10 μL microdispenser (VWR, Piscataway, NJ, USA).
For the experiment, induced-inward current was converted to digital data with pClamp 10 software (Axon Instruments, Union City, CA, USA). All experiments were performed at room temperature using an oocyte clamp equipped with Digidata. The membrane holding potential was −80 mV.
The voltage relationship experiment for confirming the relationship between induce-inward current and voltage, the voltage was varied from −80 mV to +60 mV using a ramp protocol. Each microelectrode was filled with 3 M KCl having a resistance of 0.2 MΩ. Serotonin and KAE applied in the experiment were diluted in ND96 bath solution (96 mM NaCl, 2 mM KCl, 1 mM MgCl2, 1.8 mM CaCl2, and 5 mM HEPES, pH 7.5) to specified concentration. The rate of application of the reagent was 2 mL per minute. All recording data were analyzed using Clampfit 9.0 (Molecular Devices, San Jose, CA, USA). […]
All presented experiments were performed at least three times for scientific verification. […] Induced-inward current data were analyzed with SigmaPlot 10.0 software (Systat Software, Inc., San Jose, CA, USA).

For series [3], the target named is T3, human 5-HT3A receptor D177A+F199A double mutant (Homo sapiens, UniProt P46098, D199A/F221A).
T3 sequence (P46098 24-478 D199A/F221A): T1 sequence (P46098 24-478) with D176A, F198A
Nature of the series: Two-electrode voltage clamp, I5-HT inhibition, D177A+F199A double mutant. It counts as cell-based.
Method: as §1, §2
Point mutation was performed using Pfu DNA polymerase (Quikchange II Site-Directed Mutagenesis Kit). Chimeric primer design for PCR was performed under appropriate primer design guidelines. To remove methylated cDNA, Dpn I was used. Transformation of the mutated DNA used pGEM vector. pDNA was purified using a miniprep protocol. […]
All presented experiments were performed at least three times for scientific verification. […] Induced-inward current data were analyzed with SigmaPlot 10.0 software (Systat Software, Inc., San Jose, CA, USA). […]

Details of series [4]: method as in PMID 21428901. The note with it: lipophilic, penetrates the lipid bilayer; cited from earlier work.
Setting [5] is: read-out: Emax of serotonin concentration-response.

Substitutions are numbered along the chain they refer to.

Take `O=c1c(O)c(-c2ccc(O)cc2)oc2cc(O)cc(O)c12` [KAE, kaempferol]: in series [1], the “Maximum-inhibitory percentage (Imax)” value stood at 79.3 ± 4.5%, the Vmax turned out to be 79.3 ± 4.6% and the “efficacy of antagonist against I5-HT(100uM) of 5-HT3A” value was 79.3 ± 4.6%. Also, in series [1] (Hill equation fit, Figure 1D, serotonin 100 μM, −80 mV), the Hill coefficient was determined as 0.9 ± 0.1. Further, in series [1] (KAE fixed, serotonin 1–300 μM, Figure 2B), the “competitive or non-competitive manner of inhibition” value is “non-competitive manner”. Besides, in series [1] (Wild type, −80 mV, Table 1), the IC50 turned out to be 23.4 ± 8.3 µM and the “n (Hill coefficient)” value amounted to 1.2 ± 0.3. In addition, in series [1] (setting [5]), the Emax at 10 µM was found to be 79.3 ± 4.8% and the Emax at 100 µM worked out at 37.7 ± 1.2%. Moreover, the “inhibitory manner (reversibility)” value in series [1] (serotonin and KAE 100 μM, Figure 1B) is “reversible inhibitory manner”. In addition, the “voltage dependence of inhibition” value in series [1] (voltage ramp −80 to +60 mV, KAE 10 and 100 μM, serotonin 100 μM) was “voltage-independent manner”. Also, the half-maximal inhibitory concentration (IC50) in series [2] was found to be 55.1 ± 5.8 µM. Besides, in series [2] (E209A, −80 mV), the Vmax turned out to be 81.1 ± 9.7% and the “n (Hill coefficient)” value is given as 1.7 ± 0.6. Further, in series [3] (D177A+F199A, −80 mV), the “n (Hill coefficient)” value is reported as 1.3 ± 0.4. Also, in series [3] (D177A+F199A, −80 mV, Table 1), the midpoint of inhibition, the IC50, lay at 42.9 ± 10.2 µM and the Vmax is reported as 11.9 ± 1.2%. Moreover, in series [3] (D177 and F199 double-mutant, Figure 5D), the Imax came to 11.9 ± 1.2%. Besides, in series [4], the “ability to cross the blood-brain barrier (BBB)” value is given as “can cross the blood-brain barrier (BBB)”.

The values above are taken from paper PMC8745345, “Hydroxy Pentacyclic Triterpene Acid, Kaempferol, Inhibits the Human 5-Hydroxytryptamine Type 3A Receptor Activity” (International Journal of Molecular Sciences, 2022).
